Data: the supplement of paper PMC4380931
± gives the standard deviation of the averaged measurements.

Tests used:
Experiment in all cases: apoptotic fraction of cells (caspase-3 NucView488 positive); higher = more apoptosis
SKMEL28 = system: SKMEL28
Experimental: (§1)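 BRAF V600E/D melanoma cell lines were seeded in 96-well plates, treated in 4 replicates with seven doses (3.16 nM to 3.16 uM) of RAF/MEK inhibitors for 24, 48 or 72 h, and stained with Hoechst 33342 (nuclei) and DEVD-NucView488 caspase-3 substrate. Plates were imaged on an Operetta. Relative viability is the cell count normalised to a DMSO-treated control; apoptosis fraction is the fraction of NucView488-positive nuclei.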

WM115 = system: WM115
Experimental: as §1

WM1552C = system: WM1552C
Experimental: as §1

RVH421 = system: RVH421
Experimental: as §1

LOXIMVI = system: LOXIMVI
Experimental: as §1

MMACSF = system: MMACSF
Experimental: as §1

MZ7MEL = system: MZ7MEL
Experimental: as §1

CCCS(=O)(=O)Nc1ccc(F)c(C(=O)c2c[nH]c3ncc(Cl)cc23)c1F [PLX4720]
apoptotic fraction of cells
Details | 0.00316 µM | 0.01 µM | 0.0316 µM | 0.1 µM | 0.316 µM | 1 µM | 3.16 µM
LOXIMVI, 24 h | 0.0547 ± 0.0052 | 0.0479 ± 0.022 | 0.0396 ± 0.011 | 0.0507 ± 0.004 | 0.033 ± 0.0064 | 0.0507 ± 0.0091 | 0.0445 ± 0.014
LOXIMVI, 48 h | 0.111 ± 0.012 | 0.0809 ± 0.013 | 0.0585 ± 0.012 | 0.0482 ± 0.0063 | 0.0482 ± 0.0092 | 0.0654 ± 0.014 | 0.113 ± 0.0072
LOXIMVI, 72 h | 0.211 ± 0.0062 | 0.144 ± 0.022 | 0.074 ± 0.0098 | 0.0395 ± 0.0051 | 0.048 ± 0.0076 | 0.0542 ± 0.0029 | 0.159 ± 0.084
MMACSF, 24 h | 0.0449 ± 0.0057 | 0.0443 ± 0.0007 | 0.0397 ± 0.0038 | 0.0422 ± 0.00099 | 0.0417 ± 0.0096 | 0.0492 ± 0.00081 | 0.0464 ± 0.011
MMACSF, 48 h | 0.0462 ± 0.0015 | 0.0457 ± 0.002 | 0.0434 ± 0.0037 | 0.0443 ± 0.0054 | 0.0469 ± 0.0041 | 0.0555 ± 0.0024 | 0.0933 ± 0.013
MMACSF, 72 h | 0.0394 ± 0.0019 | 0.0424 ± 0.0031 | 0.0386 ± 0.0055 | 0.0346 ± 0.005 | 0.0549 ± 0.0041 | 0.218 ± 0.014 | 0.534 ± 0.015
MZ7MEL, 24 h | 0.013 ± 0.0034 | 0.0082 ± 0.0036 | 0.01 ± 0.0047 | 0.00501 ± 0.0026 | 0.00918 ± 0.003 | 0.0127 ± 0.0066 | 0.0325 ± 0.0085
MZ7MEL, 48 h | 0.0158 ± 0.0016 | 0.0193 ± 0.0051 | 0.0129 ± 0.006 | 0.0113 ± 0.0034 | 0.0205 ± 0.005 | 0.0277 ± 0.0062 | 0.0483 ± 0.0077
MZ7MEL, 72 h | 0.0184 ± 0.0061 | 0.0171 ± 0.0049 | 0.0142 ± 0.0031 | 0.0198 ± 0.0032 | 0.0439 ± 0.0089 | 0.105 ± 0.033 | 0.151 ± 0.037
RVH421, 24 h | 0.0586 ± 0.0021 | 0.0457 ± 0.0073 | 0.0542 ± 0.0019 | 0.052 ± 0.018 | 0.0578 ± 0.0048 | 0.0478 ± 0.0035 | 0.0574 ± 0.001
RVH421, 48 h | 0.0464 ± 0.0056 | 0.062 ± 0.01 | 0.0512 ± 0.0071 | 0.05 ± 0.007 | 0.058 ± 0.0061 | 0.0593 ± 0.0083 | 0.0831 ± 0.02
RVH421, 72 h | 0.0342 ± 0.0024 | 0.035 ± 0.0027 | 0.0338 ± 0.0034 | 0.0375 ± 0.0028 | 0.0466 ± 0.003 | 0.051 ± 0.0073 | 0.0617 ± 0.012
SKMEL28, 48 h | 0.0324 ± 0.0057 | 0.0306 ± 0.0021 | 0.0349 ± 0.0019 | 0.035 ± 0.002 | 0.0365 ± 0.0046 | 0.0401 ± 0.0043 | 0.0568 ± 0.009
SKMEL28, 72 h | 0.0401 ± 0.0099 | 0.0409 ± 0.0023 | 0.0321 ± 0.0061 | 0.0301 ± 0.0018 | 0.0373 ± 0.0061 | 0.0372 ± 0.0041 | 0.105 ± 0.0059
WM115, 24 h | 0.0488 ± 0.0085 | 0.0373 ± 0.0083 | 0.0513 ± 0.011 | 0.0369 ± 0.0047 | 0.0371 ± 0.004 | 0.0643 ± 0.0087 | 0.0673 ± 0.033
WM115, 48 h | 0.0421 ± 0.0077 | 0.0454 ± 0.0042 | 0.0356 ± 0.0051 | 0.0312 ± 0.0062 | 0.0333 ± 0.0034 | 0.0466 ± 0.0042 | 0.122 ± 0.013
WM115, 72 h | 0.0312 ± 0.0044 | 0.0316 ± 0.0043 | 0.0268 ± 0.0026 | 0.0303 ± 0.0039 | 0.0415 ± 0.0032 | 0.129 ± 0.007 | 0.381 ± 0.009
WM1552C, 24 h | 0.0609 ± 0.0018 | 0.0582 ± 0.0022 | 0.0522 ± 0.009 | 0.0708 ± 0.0093 | 0.0728 ± 0.015 | 0.0756 ± 0.0035 | 0.0738 ± 0.008
WM1552C, 48 h | 0.0618 ± 0.012 | 0.0656 ± 0.008 | 0.0655 ± 0.016 | 0.0534 ± 0.0089 | 0.044 ± 0.018 | 0.0563 ± 0.014 | 0.0762 ± 0.021
WM1552C, 72 h | 0.0768 ± 0.0074 | 0.0708 ± 0.0063 | 0.0682 ± 0.0033 | 0.063 ± 0.0021 | 0.0671 ± 0.0046 | 0.0953 ± 0.0039 | 0.129 ± 0.0077

Cc1ccc(NC(=O)c2cccc(C(C)(C)C#N)c2)cc1Nc1ccc2ncn(C)c(=O)c2c1 [AZ628]
apoptotic fraction of cells
Details | 0.00316 µM | 0.01 µM | 0.0316 µM | 0.1 µM | 0.316 µM | 1 µM | 3.16 µM
LOXIMVI, 24 h | 0.0535 ± 0.01 | 0.0347 ± 0.014 | 0.0365 ± 0.0069 | 0.0586 ± 0.0053 | 0.0296 ± 0.0061 | 0.0677 ± 0.017 | 0.0554 ± 0.0088
LOXIMVI, 48 h | 0.0814 ± 0.011 | 0.0536 ± 0.012 | 0.0416 ± 0.0049 | 0.0479 ± 0.0027 | 0.063 ± 0.0059 | 0.118 ± 0.0058 | 0.163 ± 0.0068
LOXIMVI, 72 h | 0.139 ± 0.018 | 0.104 ± 0.064 | 0.0405 ± 0.004 | 0.0836 ± 0.013 | 0.117 ± 0.0087 | 0.211 ± 0.0098 | 0.497 ± 0.048
MMACSF, 24 h | 0.0452 ± 0.0074 | 0.0505 ± 0.0049 | 0.0425 ± 0.00091 | 0.0308 ± 0.0097 | 0.0456 ± 0.0044 | 0.0524 ± 0.0063 | 0.0606 ± 0.0028
MMACSF, 48 h | 0.0483 ± 0.0032 | 0.0434 ± 0.0037 | 0.0445 ± 0.0047 | 0.0497 ± 0.0076 | 0.0653 ± 0.0076 | 0.159 ± 0.024 | 0.25 ± 0.017
MMACSF, 72 h | 0.0431 ± 0.004 | 0.0411 ± 0.0056 | 0.0335 ± 0.0051 | 0.083 ± 0.018 | 0.226 ± 0.014 | 0.465 ± 0.012 | 0.62 ± 0.023
MZ7MEL, 24 h | 0.0132 ± 0.006 | 0.0129 ± 0.0019 | 0.0104 ± 0.0083 | 0.00814 ± 0.0047 | 0.0204 ± 0.0053 | 0.032 ± 0.015 | 0.0453 ± 0.0093
MZ7MEL, 48 h | 0.0137 ± 0.0038 | 0.0171 ± 0.0039 | 0.0173 ± 0.00068 | 0.0263 ± 0.006 | 0.0421 ± 0.0069 | 0.0561 ± 0.0057 | 0.0749 ± 0.0098
MZ7MEL, 72 h | 0.0208 ± 0.0082 | 0.0145 ± 0.0031 | 0.0428 ± 0.01 | 0.156 ± 0.011 | 0.236 ± 0.026 | 0.265 ± 0.026 | 0.293 ± 0.012
RVH421, 24 h | 0.0557 ± 0.0032 | 0.0513 ± 0.00054 | 0.04611 ± 0.00017 | 0.0493 ± 0.0032 | 0.0559 ± 0.012 | 0.0518 ± 0.00084 | 0.0578 ± 0.014
RVH421, 48 h | 0.0503 ± 0.011 | 0.053 ± 0.0075 | 0.0555 ± 0.015 | 0.0583 ± 0.0065 | 0.0645 ± 0.0092 | 0.0779 ± 0.011 | 0.108 ± 0.014
RVH421, 72 h | 0.0338 ± 0.0032 | 0.032 ± 0.0035 | 0.038 ± 0.003 | 0.0442 ± 0.0059 | 0.0517 ± 0.0043 | 0.105 ± 0.011 | 0.165 ± 0.016
SKMEL28, 48 h | 0.04 ± 0.0087 | 0.0326 ± 0.0059 | 0.032 ± 0.0054 | 0.0352 ± 0.0054 | 0.0404 ± 0.0032 | 0.063 ± 0.0078 | 0.09 ± 0.0097
SKMEL28, 72 h | 0.0319 ± 0.0039 | 0.028 ± 0.0073 | 0.0262 ± 0.0049 | 0.0319 ± 0.011 | 0.0526 ± 0.0099 | 0.107 ± 0.0053 | 0.142 ± 0.0076
WM115, 24 h | 0.0464 ± 0.011 | 0.0415 ± 0.0061 | 0.0535 ± 0.0073 | 0.0496 ± 0.013 | 0.0725 ± 0.023 | 0.135 ± 0.023 | 0.202 ± 0.1
WM115, 48 h | 0.0302 ± 0.0073 | 0.0498 ± 0.014 | 0.0357 ± 0.0068 | 0.0517 ± 0.007 | 0.139 ± 0.063 | 0.311 ± 0.039 | 0.379 ± 0.043
WM115, 72 h | 0.0295 ± 0.0037 | 0.0285 ± 0.0053 | 0.0418 ± 0.0034 | 0.159 ± 0.039 | 0.419 ± 0.052 | 0.644 ± 0.092 | 0.82 ± 0.04
WM1552C, 24 h | 0.0672 ± 0.0095 | 0.0724 ± 0.0046 | 0.0622 ± 0.0018 | 0.0716 ± 0.0026 | 0.0799 ± 0.0038 | 0.0776 ± 0.006 | 0.104 ± 0.018
WM1552C, 48 h | 0.0725 ± 0.013 | 0.0688 ± 0.012 | 0.0702 ± 0.021 | 0.0329 ± 0.014 | 0.0464 ± 0.022 | 0.0857 ± 0.02 | 0.108 ± 0.032
WM1552C, 72 h | 0.0855 ± 0.004 | 0.0732 ± 0.0055 | 0.0827 ± 0.026 | 0.0883 ± 0.0036 | 0.134 ± 0.0099 | 0.153 ± 0.0054 | 0.172 ± 0.0067
